Data reported in ChEMBL document CHEMBL3885861, “Open TG-GATES”.

Organism: Rattus norvegicus
Assay: Open TG-GATES - Regimen: Daily Repeat
Type: toxicity, organism-based, Sprague-Dawley
Design: regimen Daily Repeat, gender Male, age 6 weeks
Conditions: in vivo, po, route gavage; for APTT / Bas / Eos / Fbg / Hb / Ht / Lym / MCH / MCHC / MCV / Mono / Neu / PT / Plat / RBC / Ret / WBC: tissue Blood; for KIDNEY_L / KIDNEY_R / KIDNEY_TOTAL: tissue Kidney; for LIVER: tissue Liver; for A/G / ALP / ALT / AST / BUN / CRE / Ca / Cl / DBIL / GLC / IP / K / LDH / Na / PL / RALB / TBIL / TC / TG / TP / gamma-GTP: tissue Plasma
[1] = 300 mg/kg, 72 h, dose level Middle, time 3 day
[2] = 300 mg/kg, […], dose level Middle, time 7 day
[3] = 300 mg/kg, […], dose level Middle, time 14 day
[4] = 300 mg/kg, […], dose level Middle, time 28 day
[5] = 1000 mg/kg, 72 h, dose level High, time 3 day
[6] = 1000 mg/kg, […], dose level High, time 7 day
[7] = 1000 mg/kg, […], dose level High, time 14 day
[8] = 1000 mg/kg, […], dose level High, time 28 day

O=C(O)c1cc(/N=N/c2ccc(S(=O)(=O)Nc3ccccn3)cc2)ccc1O [SULFASALAZINE]
TERMINAL_BW [1]: 236.9 g
APTT [1]: 18.6 s
Bas [1]: 0%
Eos [1]: 1%
Fbg [1]: 213 mg/dL
Hb [1]: 13.2 g/dL
Ht [1]: 38.4%
Lym [1]: 81.6%
MCH [1]: 21.8 pg
MCHC [1]: 34.5%
MCV [1]: 63.2 fL
Mono [1]: 2.2%
Neu [1]: 14%
PT [1]: 12.5 s
Plat [1]: 146.1 x10_4/uL
RBC [1]: 607.4 x10_4/ul
Ret [1]: 5.7%
WBC [1]: 109.3 x10_2/uL
KIDNEY_L [1]: 1 g
KIDNEY_R [1]: 1 g
KIDNEY_TOTAL [1]: 2 g
LIVER [1]: 11.1 g
A/G [1]: 1.5
ALP [1]: 1050.4 IU/L
ALT [1]: 37 IU/L
AST [1]: 69.6 IU/L
BUN [1]: 16.4 mg/dL
CRE [1]: 0.4 mg/dL
Ca [1]: 10.9 mg/dL
Cl [1]: 103.2 meq/L
DBIL [1]: 0.092 mg/dL
GLC [1]: 202.6 mg/dL
IP [1]: 6.8 mg/dL
K [1]: 3.9 meq/L
LDH [1]: 257.2 IU/L
Na [1]: 141 meq/L
PL [1]: 156.6 mg/dL
RALB [1]: 3.4 g/dL
TBIL [1]: 0.2 mg/dL
TC [1]: 81 mg/dL
TG [1]: 86.6 mg/dL
TP [1]: 5.6 g/dL
gamma-GTP [1]: 1.4 IU/L
TERMINAL_BW [2]: 264.7 g
TERMINAL_BW [3]: 309.2 g
TERMINAL_BW [4]: 365.3 g
APTT [2]: 18.5 s
Bas [2]: 0%
Eos [2]: 1%
Fbg [2]: 212.4 mg/dL
Hb [2]: 13.6 g/dL
Ht [2]: 39.4%
Lym [2]: 79.4%
MCH [2]: 21.4 pg
MCHC [2]: 34.5%
MCV [2]: 62 fL
Mono [2]: 2.6%
Neu [2]: 15.6%
PT [2]: 12.9 s
Plat [2]: 124.9 x10_4/uL
RBC [2]: 636.2 x10_4/ul
Ret [2]: 5.3%
WBC [2]: 123 x10_2/uL
APTT [3]: 18.5 s
Bas [3]: 0%
Eos [3]: 1%
Fbg [3]: 214.6 mg/dL
Hb [3]: 14.8 g/dL
Ht [3]: 41.7%
Lym [3]: 83.4%
MCH [3]: 21.2 pg
MCHC [3]: 35.4%
MCV [3]: 59.8 fL
Mono [3]: 2.6%
Neu [3]: 11.6%
PT [3]: 12.7 s
Plat [3]: 114.3 x10_4/uL
RBC [3]: 698 x10_4/ul
Ret [3]: 4.3%
WBC [3]: 109.2 x10_2/uL
APTT [4]: 18.2 s
Bas [4]: 0%
Eos [4]: 1%
Fbg [4]: 199 mg/dL
Hb [4]: 15.2 g/dL
Ht [4]: 42.2%
Lym [4]: 81.2%
MCH [4]: 20.1 pg
MCHC [4]: 35.9%
MCV [4]: 56 fL
Mono [4]: 2.4%
Neu [4]: 14.4%
PT [4]: 12.8 s
Plat [4]: 100.8 x10_4/uL
RBC [4]: 753.6 x10_4/ul
Ret [4]: 3%
WBC [4]: 88.7 x10_2/uL
KIDNEY_L [2]: 1.1 g
KIDNEY_R [2]: 1.1 g
KIDNEY_TOTAL [2]: 2.2 g
KIDNEY_L [3]: 1.2 g
KIDNEY_R [3]: 1.2 g
KIDNEY_TOTAL [3]: 2.4 g
KIDNEY_L [4]: 1.3 g
KIDNEY_R [4]: 1.3 g
KIDNEY_TOTAL [4]: 2.6 g
LIVER [2]: 11.8 g
LIVER [3]: 13 g
LIVER [4]: 13.6 g
A/G [2]: 1.7
ALP [2]: 838.8 IU/L
ALT [2]: 36.8 IU/L
AST [2]: 66.2 IU/L
BUN [2]: 15.8 mg/dL
CRE [2]: 0.4 mg/dL
Ca [2]: 10.7 mg/dL
Cl [2]: 103.6 meq/L
DBIL [2]: 0.088 mg/dL
GLC [2]: 213.8 mg/dL
IP [2]: 7 mg/dL
K [2]: 3.7 meq/L
LDH [2]: 186.6 IU/L
Na [2]: 140.8 meq/L
PL [2]: 144.4 mg/dL
RALB [2]: 3.5 g/dL
TBIL [2]: 0.1 mg/dL
TC [2]: 70.8 mg/dL
TG [2]: 83 mg/dL
TP [2]: 5.6 g/dL
gamma-GTP [2]: 1.4 IU/L
A/G [3]: 1.4
ALP [3]: 901 IU/L
ALT [3]: 37.2 IU/L
AST [3]: 64.8 IU/L
BUN [3]: 18 mg/dL
CRE [3]: 0.5 mg/dL
Ca [3]: 10.7 mg/dL
Cl [3]: 102.8 meq/L
DBIL [3]: 0.094 mg/dL
GLC [3]: 190.6 mg/dL
IP [3]: 7.1 mg/dL
K [3]: 3.6 meq/L
LDH [3]: 204.6 IU/L
Na [3]: 141 meq/L
PL [3]: 151.2 mg/dL
RALB [3]: 3.5 g/dL
TBIL [3]: 0.2 mg/dL
TC [3]: 70.4 mg/dL
TG [3]: 105.8 mg/dL
TP [3]: 6 g/dL
gamma-GTP [3]: 2 IU/L
A/G [4]: 1.5
ALP [4]: 668.8 IU/L
ALT [4]: 37.4 IU/L
AST [4]: 63.6 IU/L
BUN [4]: 18 mg/dL
CRE [4]: 0.5 mg/dL
Ca [4]: 10.3 mg/dL
Cl [4]: 103.8 meq/L
DBIL [4]: 0.082 mg/dL
GLC [4]: 214.2 mg/dL
IP [4]: 6.3 mg/dL
K [4]: 3.3 meq/L
LDH [4]: 134.4 IU/L
Na [4]: 141.8 meq/L
PL [4]: 128.6 mg/dL
RALB [4]: 3.5 g/dL
TBIL [4]: 0.1 mg/dL
TC [4]: 59.6 mg/dL
TG [4]: 92.6 mg/dL
TP [4]: 5.9 g/dL
gamma-GTP [4]: 1.2 IU/L
TERMINAL_BW [5]: 221.5 g
APTT [5]: 18 s
Bas [5]: 0%
Eos [5]: 0.8%
Fbg [5]: 215 mg/dL
Hb [5]: 14.4 g/dL
Ht [5]: 42%
Lym [5]: 87.2%
MCH [5]: 21.4 pg
MCHC [5]: 34.2%
MCV [5]: 62.4 fL
Mono [5]: 2%
Neu [5]: 8.8%
PT [5]: 13.1 s
Plat [5]: 127.1 x10_4/uL
RBC [5]: 674.2 x10_4/ul
Ret [5]: 3.4%
WBC [5]: 93.4 x10_2/uL
KIDNEY_L [5]: 1 g
KIDNEY_R [5]: 1 g
KIDNEY_TOTAL [5]: 1.9 g
LIVER [5]: 10.2 g
A/G [5]: 1.6
ALP [5]: 888.8 IU/L
ALT [5]: 49.4 IU/L
AST [5]: 77.4 IU/L
BUN [5]: 20.8 mg/dL
CRE [5]: 0.4 mg/dL
Ca [5]: 10.8 mg/dL
Cl [5]: 103.6 meq/L
DBIL [5]: 0.094 mg/dL
GLC [5]: 187.4 mg/dL
IP [5]: 6.8 mg/dL
K [5]: 3.6 meq/L
LDH [5]: 252.8 IU/L
Na [5]: 141 meq/L
PL [5]: 149.2 mg/dL
RALB [5]: 3.5 g/dL
TBIL [5]: 0.1 mg/dL
TC [5]: 78.4 mg/dL
TG [5]: 70 mg/dL
TP [5]: 5.6 g/dL
gamma-GTP [5]: 1.4 IU/L
TERMINAL_BW [6]: 246.1 g
TERMINAL_BW [7]: 276.8 g
TERMINAL_BW [8]: 334.1 g
APTT [6]: 19.3 s
Bas [6]: 0%
Eos [6]: 0.6%
Fbg [6]: 197 mg/dL
Hb [6]: 14.1 g/dL
Ht [6]: 40.8%
Lym [6]: 86.2%
MCH [6]: 21.2 pg
MCHC [6]: 34.7%
MCV [6]: 61.1 fL
Mono [6]: 2.6%
Neu [6]: 9.6%
PT [6]: 13.6 s
Plat [6]: 106.1 x10_4/uL
RBC [6]: 667.6 x10_4/ul
Ret [6]: 4.5%
WBC [6]: 106.7 x10_2/uL
APTT [7]: 19.4 s
Bas [7]: 0%
Eos [7]: 0.8%
Fbg [7]: 200.6 mg/dL
Hb [7]: 15.2 g/dL
Ht [7]: 42.7%
Lym [7]: 85.4%
MCH [7]: 20.2 pg
MCHC [7]: 35.6%
MCV [7]: 57 fL
Mono [7]: 1.8%
Neu [7]: 10.8%
PT [7]: 13.4 s
Plat [7]: 106.3 x10_4/uL
RBC [7]: 750.2 x10_4/ul
Ret [7]: 3%
WBC [7]: 132.9 x10_2/uL
APTT [8]: 18.9 s
Bas [8]: 0%
Eos [8]: 1%
Fbg [8]: 206.2 mg/dL
Hb [8]: 14.9 g/dL
Ht [8]: 41.8%
Lym [8]: 84%
MCH [8]: 19.5 pg
MCHC [8]: 35.6%
MCV [8]: 54.7 fL
Mono [8]: 1.8%
Neu [8]: 12.6%
PT [8]: 13.3 s
Plat [8]: 101.4 x10_4/uL
RBC [8]: 763.6 x10_4/ul
Ret [8]: 4.2%
WBC [8]: 116.9 x10_2/uL
KIDNEY_L [6]: 1 g
KIDNEY_R [6]: 1 g
KIDNEY_TOTAL [6]: 2.1 g
KIDNEY_L [7]: 1.1 g
KIDNEY_R [7]: 1.2 g
KIDNEY_TOTAL [7]: 2.2 g
KIDNEY_L [8]: 1.3 g
KIDNEY_R [8]: 1.3 g
KIDNEY_TOTAL [8]: 2.6 g
LIVER [6]: 10.8 g
LIVER [7]: 11.1 g
LIVER [8]: 12.9 g
A/G [6]: 1.6
ALP [6]: 756.2 IU/L
ALT [6]: 46 IU/L
AST [6]: 74 IU/L
BUN [6]: 19.8 mg/dL
CRE [6]: 0.4 mg/dL
Ca [6]: 10.7 mg/dL
Cl [6]: 104.6 meq/L
DBIL [6]: 0.068 mg/dL
GLC [6]: 202.8 mg/dL
IP [6]: 7.2 mg/dL
K [6]: 3.4 meq/L
LDH [6]: 216.4 IU/L
Na [6]: 142.4 meq/L
PL [6]: 118 mg/dL
RALB [6]: 3.5 g/dL
TBIL [6]: 0.1 mg/dL
TC [6]: 63 mg/dL
TG [6]: 36.4 mg/dL
TP [6]: 5.7 g/dL
gamma-GTP [6]: 1.4 IU/L
A/G [7]: 1.6
ALP [7]: 776.2 IU/L
ALT [7]: 47.6 IU/L
AST [7]: 75.2 IU/L
BUN [7]: 21.2 mg/dL
CRE [7]: 0.5 mg/dL
Ca [7]: 10.7 mg/dL
Cl [7]: 103 meq/L
DBIL [7]: 0.068 mg/dL
GLC [7]: 186.2 mg/dL
IP [7]: 6.7 mg/dL
K [7]: 3.5 meq/L
LDH [7]: 196.6 IU/L
Na [7]: 141.8 meq/L
PL [7]: 122.2 mg/dL
RALB [7]: 3.7 g/dL
TBIL [7]: 0.1 mg/dL
TC [7]: 67.2 mg/dL
TG [7]: 33.8 mg/dL
TP [7]: 6.1 g/dL
gamma-GTP [7]: 1.4 IU/L
A/G [8]: 1.6
ALP [8]: 655 IU/L
ALT [8]: 44.8 IU/L
AST [8]: 68.6 IU/L
BUN [8]: 19.8 mg/dL
CRE [8]: 0.5 mg/dL
Ca [8]: 10.4 mg/dL
Cl [8]: 103.6 meq/L
DBIL [8]: 0.074 mg/dL
GLC [8]: 206.8 mg/dL
IP [8]: 6.2 mg/dL
K [8]: 3.3 meq/L
LDH [8]: 137.6 IU/L
Na [8]: 143.2 meq/L
PL [8]: 108.6 mg/dL
RALB [8]: 3.8 g/dL
TBIL [8]: 0.1 mg/dL
TC [8]: 62.2 mg/dL
TG [8]: 27.6 mg/dL
TP [8]: 6.1 g/dL
gamma-GTP [8]: 1.4 IU/L
